{"source": "ChEMBL document CHEMBL6071198", "about": "“Advances in Cancer Treatment and Monitoring: Insights from KRAS Inhibitors and Germline Epitope Burden Monitoring” (ACS Med Chem Lett, 2024)", "key": {"[1]": {"assay": "Inhibition of biotinylated KRAS G12D mutant (unknown origin)/CRAF RBD (unknown origin) protein-protein interaction preincubated for 60 mins followed by SOS1 and GTPgs addition measured after 60 mins by FRET assay", "parameters": "species or system Homo sapiens"}, "GTPase KRas/RAF1": {"biological_target": "GTPase KRas/RAF1 (Homo sapiens, UniProt P01116)", "assay": "Inhibition of biotinylated wild type KRAS (1 to 169 residues) (unknown origin)/CRAF RBD (unknown origin) protein-protein interaction preincubated for 60 mins followed by SOS1 and GTPgs addition measured after 60 mins by FRET assay"}}}
{"smiles": "Cc1ncsc1-c1ccc([C@H](C)NC(=O)[C@H]2C[C@@H](O)CN2C(=O)[C@@H](NC(=O)CCOCCCN2CCC[C@H]2COc2nc(N3CC4CCC(C3)N4)c3cc(Cl)c(-c4ccc(F)c5sc(N)c(C#N)c45)c(F)c3n2)C(C)(C)C)cc1", "values": [{"measurement": "IC50", "setting": "[1]", "result": 8.18, "unit": "nM"}, {"measurement": "IC50", "setting": "GTPase KRas/RAF1", "result": 25.9, "unit": "nM"}]}
{"smiles": "Cc1ncsc1-c1ccc([C@H](C)NC(=O)[C@H]2C[C@@H](O)CN2C(=O)[C@@H](NC(=O)CCOCCCN2CCC[C@H]2COc2nc(N3CC4CCC(C3)N4)c3cnc(-c4cc(O)cc5cccc(F)c45)c(F)c3n2)C(C)(C)C)cc1", "values": [{"measurement": "IC50", "setting": "[1]", "result": 8.21, "unit": "nM"}, {"measurement": "IC50", "setting": "GTPase KRas/RAF1", "result": 158, "unit": "nM"}]}
{"smiles": "C[C@H](NC(=O)[C@H]1C[C@@H](O)CN1C(=O)[C@@H](NC(=O)CCOCCCN1CCC[C@H]1COc1nc(N2CC3CCC(C2)N3)c2cc(Cl)c(-c3ccc(F)c4sc(N)c(C#N)c34)c(F)c2n1)C(C)(C)C)c1ccc(-c2c(F)cccc2F)cc1", "values": [{"measurement": "IC50", "setting": "[1]", "result": 7.67, "unit": "nM"}, {"measurement": "IC50", "setting": "GTPase KRas/RAF1", "result": 77.7, "unit": "nM"}]}
{"smiles": "C#Cc1c(F)ccc2cc(O)cc(-c3ncc4c(N5CC6CCC(C5)N6)nc(OC[C@@H]5CCCN5CCCOCCC(=O)N[C@H](C(=O)N5C[C@H](O)C[C@@H]5C(=O)N[C@@H](C)c5ccc(-c6c(F)cccc6F)cc5)C(C)(C)C)nc4c3F)c12", "values": [{"measurement": "IC50", "setting": "[1]", "result": 9.4, "unit": "nM"}, {"measurement": "IC50", "setting": "GTPase KRas/RAF1", "result": 41.9, "unit": "nM"}]}
{"smiles": "C#Cc1c(F)ccc2cc(O)cc(-c3ncc4c(N5CC6CCC(C5)N6)nc(OC[C@@H]5CCCN5CCCOCCC(=O)N[C@H](C(=O)N5C[C@H](O)C[C@@H]5C(=O)N[C@@H](C)c5ccc(-c6ccncc6C#N)cc5)C(C)(C)C)nc4c3F)c12", "values": [{"measurement": "IC50", "setting": "[1]", "result": 7.93, "unit": "nM"}, {"measurement": "IC50", "setting": "GTPase KRas/RAF1", "result": 24.2, "unit": "nM"}]}
{"smiles": "C[C@H](NC(=O)[C@H]1C[C@@H](O)CN1C(=O)[C@@H](NC(=O)CCOCCCN1CCC[C@H]1COc1nc(N2CC3CCC(C2)N3)c2cc(C(F)(F)F)c(-c3ccc(F)c4sc(N)c(C#N)c34)c(F)c2n1)C(C)(C)C)c1ccc(-c2c(F)cccc2F)cc1", "values": [{"measurement": "IC50", "setting": "[1]", "result": 8.52, "unit": "nM"}, {"measurement": "IC50", "setting": "GTPase KRas/RAF1", "result": 26.9, "unit": "nM"}]}
